“And” between values parts separate entries of the source, which are not always exact repeats. Equal values may be shown once. Toxic doses and inconclusive results are not listed.
Tested on: BDF1 mice, Lewis lung carcinoma iv, survival T/C
Test: NCI In Vivo Anticancer Drug Screen. Data for tumor model Lewis Lung Carcinoma (intravenous) in B6D2F1 (BDF1) mice
Conditions: endpoint: median survival time, higher = longer survival
Method: The antitumor activity of compounds was measured in mice bearing transplantable tumors. Survival or tumor size were measured and the results are expressed as the measurement made in the treated group (T) divided by the measurement made in the vehicle treated control group (C). The tumor model used in this assay is Lewis Lung Carcinoma (intravenous) in B6D2F1 (BDF1) mice

[1] = dose: 25.0 mg/kg/injection, schedule: Q01DX009 (ip), vehicle: saline
[2] = dose: 50.0 mg/kg/injection, schedule: Q01DX009 (ip), vehicle: saline
[3] = dose: 12.5 mg/kg/injection, schedule: Q01DX009 (ip), vehicle: saline with Tween-80
[4] = dose: 1.5 mg/kg/injection, schedule: Q01DX009 (ip), vehicle: saline
[5] = dose: 3.0 mg/kg/injection, schedule: Q01DX009 (ip), vehicle: saline
[6] = dose: 6.0 mg/kg/injection, schedule: Q01DX009 (ip), vehicle: saline
[7] = dose: 12.5 mg/kg/injection, schedule: Q01DX009 (ip), vehicle: saline
[8] = dose: 50.0 mg/kg/injection, schedule: Q01DX009 (ip), vehicle: Klucel (hydroxypropylcellulose) (HPC)
[9] = dose: 100.0 mg/kg/injection, schedule: Q01DX009 (ip), vehicle: saline
[10] = dose: 50.0 mg/kg/injection, schedule: Q01DX009 (ip), vehicle: suspension in saline

SMILES: CC[C@@]1(O)C[C@H](OC2CC(N(C)C)C(OC3CC(O)C(OC4CCC(=O)C(C)O4)C(C)O3)C(C)O2)c2c(cc3c(c2O)C(=O)c2c(O)ccc(O)c2C3=O)[C@H]1C(=O)OC (stereo partly specified)
- T/C (dose: 0.12 mg/kg/injection, schedule: Q01DX009 (ip), vehicle: water): 103 % of control
- T/C (dose: 0.25 mg/kg/injection, schedule: Q01DX009 (ip), vehicle: water): 103 % of control and 107 % of control
- T/C (dose: 0.5 mg/kg/injection, schedule: Q01DX009 (ip), vehicle: water): 96 % of control and 101 % of control
- T/C (dose: 0.88 mg/kg/injection, schedule: Q01DX009 (ip), vehicle: water): 117 % of control
- T/C (dose: 1.0 mg/kg/injection, schedule: Q01DX009 (ip), vehicle: water): 103 % of control
- T/C (dose: 1.7 mg/kg/injection, schedule: Q04DX003 (ip), vehicle: water): 94 % of control
- T/C (dose: 1.92 mg/kg/injection, schedule: Q04DX003 (ip), vehicle: water): 110 % of control
- T/C (dose: 2.9 mg/kg/injection, schedule: Q04DX003 (ip), vehicle: water): 100 % of control and 117 % of control
- T/C (dose: 3.9 mg/kg/injection, schedule: Q04DX003 (ip), vehicle: water): 118 % of control
- T/C (dose: 4.8 mg/kg/injection, schedule: Q01DX001 (ip), vehicle: water): 109 % of control
- T/C (dose: 4.8 mg/kg/injection, schedule: Q04DX003 (ip), vehicle: water): 109 % of control and 122 % of control
- T/C (dose: 6.86 mg/kg/injection, schedule: Q01DX001 (ip), vehicle: water): 123 % of control
- T/C (dose: 8.0 mg/kg/injection, schedule: Q04DX003 (ip), vehicle: water): 104 % of control
- T/C (dose: 13.3 mg/kg/injection, schedule: Q04DX003 (ip), vehicle: water): 86 % of control

SMILES: c1cn[nH]c1
- T/C [1]: 121 % of control
- T/C [2]: 110 % of control

SMILES: CC(=O)O[C@@H]1[C@@H](O)C2=C3[C@]4(C)[C@@H]1C(C)(C)C(=O)C[C@@H]4[C@]3(O)[C@H](OC(C)=O)[C@@]1(C[C@@H]1C)C2=O
- T/C (dose: 3.12 mg/kg/injection, schedule: Q01DX009 (ip), vehicle: saline with Tween-80): 97 % of control
- T/C (dose: 6.25 mg/kg/injection, schedule: Q01DX009 (ip), vehicle: saline with Tween-80): 195 % of control
- T/C [3]: 162 % of control

SMILES: O=C(CCN1CC1)OCCOC(=O)CCN1CC1
- T/C [4]: 111 % of control
- T/C [5]: 107 % of control
- T/C [6]: 99 % of control
- T/C (dose: 24.0 mg/kg/injection, schedule: Q01DX009 (ip), vehicle: saline): 107 % of control

SMILES: CCCCCCCCCCCCCCCCS(=O)CC(O)COC(=O)c1ccc(C(=O)OCC(O)CS(=O)CCCCCCCCCCCCCCCC)cc1 (stereo unspecified)
- T/C (dose: 12.5 mg/kg/injection, schedule: Q01DX009 (ip), vehicle: saline + Tween-80 + alcohol): 88 % of control
- T/C (dose: 25.0 mg/kg/injection, schedule: Q01DX009 (ip), vehicle: saline + alcohol): 95 % of control
- T/C (dose: 50.0 mg/kg/injection, schedule: Q01DX009 (ip), vehicle: saline + Tween-80 + alcohol): 95 % of control
- T/C (dose: 100.0 mg/kg/injection, schedule: Q01DX009 (ip), vehicle: saline + Tween-80 + alcohol): 92 % of control
- T/C (dose: 100.0 mg/kg/injection, schedule: Q01DX009 (ip), vehicle: saline + alcohol): 101 % of control
- T/C (dose: 200.0 mg/kg/injection, schedule: Q01DX009 (ip), vehicle: saline + Tween-80 + alcohol): 99 % of control
- T/C (dose: 200.0 mg/kg/injection, schedule: Q01DX009 (ip), vehicle: saline + alcohol): 218 % of control

SMILES: CCCCCCCCCCCC(c1ccccc1)[N+](C)(C)C (stereo unspecified)
- T/C (dose: 1.0 mg/kg/injection, schedule: Q01DX009 (ip), vehicle: saline): 96 % of control
- T/C (dose: 2.0 mg/kg/injection, schedule: Q01DX009 (ip), vehicle: saline): 105 % of control
- T/C (dose: 4.0 mg/kg/injection, schedule: Q01DX009 (ip), vehicle: saline): 101 % of control

SMILES: [Cl][Sn]([c]1ccccc1)[c]1ccccc1
- T/C (dose: 3.12 mg/kg/injection, schedule: Q01DX009 (ip), vehicle: saline): 104 % of control
- T/C (dose: 6.25 mg/kg/injection, schedule: Q01DX009 (ip), vehicle: saline): 97 % of control
- T/C [7]: 98 % of control

SMILES: CC(=O)OCC1OC(n2cc(CBr)nn2)C(OC(C)=O)C(OC(C)=O)C1OC(C)=O (stereo unspecified)
- T/C (dose: 3.12 mg/kg/injection, schedule: Q01DX009 (ip), vehicle: Klucel (hydroxypropylcellulose) (HPC)): 87 % of control
- T/C (dose: 6.25 mg/kg/injection, schedule: Q01DX009 (ip), vehicle: Klucel (hydroxypropylcellulose) (HPC)): 88 % of control
- T/C (dose: 12.5 mg/kg/injection, schedule: Q01DX009 (ip), vehicle: Klucel (hydroxypropylcellulose) (HPC)): 102 % of control
- T/C (dose: 25.0 mg/kg/injection, schedule: Q01DX009 (ip), vehicle: Klucel (hydroxypropylcellulose) (HPC)): 106 % of control
- T/C [8]: 96 % of control

SMILES: O=P1(NCCCl)OCCCN1CCCl (stereo unspecified)
- T/C [7]: 114 % of control
- T/C [1]: 112 % of control
- T/C [2]: 163 % of control
- T/C [9]: 305 % of control
- T/C (dose: 108.0 mg/kg/injection, schedule: Q01DX001 (ip), vehicle: water): 112 % of control
- T/C (dose: 190.0 mg/kg/injection, schedule: Q01DX001 (ip), vehicle: saline): 283 % of control
- T/C (dose: 289.0 mg/kg/injection, schedule: Q01DX001 (ip), vehicle: saline): 283 % of control
- T/C (dose: 431.0 mg/kg/injection, schedule: Q01DX001 (ip), vehicle: saline): 212 % of control
- T/C (dose: 500.0 mg/kg/injection, schedule: Q01DX001 (ip), vehicle: water): 91 % of control

SMILES: CCO/C=C1\SC(=S)N(c2ccccc2C)C1=O
- T/C [3]: 96 % of control
- T/C (dose: 25.0 mg/kg/injection, schedule: Q01DX009 (ip), vehicle: saline with Tween-80): 94 % of control
- T/C (dose: 50.0 mg/kg/injection, schedule: Q01DX009 (ip), vehicle: saline with Tween-80): 100 % of control
- T/C (dose: 100.0 mg/kg/injection, schedule: Q01DX009 (ip), vehicle: saline with Tween-80): 106 % of control
- T/C (dose: 200.0 mg/kg/injection, schedule: Q01DX009 (ip), vehicle: saline with Tween-80): 99 % of control

SMILES: O=NN(CCCl)C(=O)NC1[C@H](O)CCC[C@@H]1O (stereo partly specified)
- T/C (dose: 0.62 mg/kg/injection, schedule: Q01DX009 (ip), vehicle: saline): 105 % of control
- T/C (dose: 1.25 mg/kg/injection, schedule: Q01DX009 (ip), vehicle: saline): 120 % of control
- T/C (dose: 2.5 mg/kg/injection, schedule: Q01DX009 (ip), vehicle: saline): 159 % of control
- T/C (dose: 5.0 mg/kg/injection, schedule: Q01DX009 (ip), vehicle: saline): 278 % of control

SMILES: CC[N](CC)[Ge]([CH2]C)[CH2]C.CC[N](CC)[Ge]([CH2]C)[CH2]C
- T/C (dose: 3.12 mg/kg/injection, schedule: Q01DX009 (ip), vehicle: suspension in saline): 113 % of control
- T/C (dose: 6.25 mg/kg/injection, schedule: Q01DX009 (ip), vehicle: suspension in saline): 95 % of control
- T/C (dose: 12.5 mg/kg/injection, schedule: Q01DX009 (ip), vehicle: suspension in saline): 96 % of control
- T/C (dose: 25.0 mg/kg/injection, schedule: Q01DX009 (ip), vehicle: suspension in saline): 106 % of control
- T/C [10]: 100 % of control

SMILES: CC(C)C(N)C(=O)Nc1nncs1 (stereo unspecified)
- T/C [7]: 104 % of control
- T/C [1]: 106 % of control
- T/C [2]: 106 % of control
- T/C [9]: 115 % of control
- T/C (dose: 200.0 mg/kg/injection, schedule: Q01DX009 (ip), vehicle: saline): 95 % of control

SMILES: O=C1c2ccccc2C(=O)c2c(NCCNCCO)ccc(NCCNCCO)c21
- T/C (dose: 1.0 mg/kg/injection, schedule: Q01DX005 (ip), vehicle: saline with Tween-80): 119 % of control
- T/C (dose: 1.0 mg/kg/injection, schedule: Q01DX009 (ip), vehicle: saline with Tween-80): 100 % of control
- T/C (dose: 2.0 mg/kg/injection, schedule: Q01DX005 (ip), vehicle: saline): 102 % of control
- T/C (dose: 2.0 mg/kg/injection, schedule: Q01DX009 (ip), vehicle: saline with Tween-80): 110 % of control
- T/C (dose: 4.0 mg/kg/injection, schedule: Q01DX005 (ip), vehicle: saline with Tween-80): 109 % of control
- T/C (dose: 4.0 mg/kg/injection, schedule: Q01DX009 (ip), vehicle: saline with Tween-80): 102 % of control

SMILES: O=C(NCCCCCCCCCCNC(=O)N1CC1)N1CC1
- T/C (dose: 0.75 mg/kg/injection, schedule: Q01DX009 (ip), vehicle: saline): 117 % of control
- T/C [4]: 110 % of control
- T/C [5]: 122 % of control
- T/C [6]: 117 % of control

SMILES: Nc1nc(SCc2ccccc2)c2ncn(C3OC(CO)CC3O)c2n1 (stereo unspecified)
- T/C [8]: 109 % of control

SMILES: CC(=O)OCC1OC(n2cnc3c(=S)nc[nH]c32)C(OC(C)=O)C1OC(C)=O (stereo unspecified)
- T/C [10]: 100 % of control

From PubChem BioAssay AID274 (DTP/NCI, 2004)
